Test results reported in patent publication US20230103791A1 (GLAXOSMITHKLINE INTELLECTUAL PROPERTY DEVELOPMENT LIMITED, priority 2019, published 2023).

Molecular target: T1, human Nav1.8 (Homo sapiens, UniProt Q9Y5Y9)
T1 construct: expressed in transfected cells; host or cells: HEK293 (HEK293-Nav1.8)
Experiment: Nav1.8 sodium channels assay, QPatch 48 HTX electrophysiology in HEK293-Nav1.8 cells
Format: cell-based
Conditions: at least one set of experimental runs; read-out: average pIC50 value against Nav1.8 (converted)
Protocol: Human embryonic kidney […] cells (HEK293) expressing human Nav1.8, human Navβ1 and human TREK1 (HEK293-Nav1.8) were grown at 37° C., 5% CO2 in 150 cm^2 flasks. HEK293-Nav1.8 were passaged every 2-3 days when confluency reached 80-90% in to T175 cell culture flasks.
Pharmacological assessment of the invention was performed using HEK293-Nav1.8 in combination with an assay developed on the QPatch 48 HTX electrophysiological system. HEK293-Nav1.8 were prepared on the day of use by removing culture media, washing in DPBS, adding Accutase (2 ml to cover the surface, aspirate 1 ml then 1.5 min at 37° C.) followed by addition of CHO-SFM II to stop the enzyme digestion and in order to obtain a suspension of 3×10^6 cell/mL.
The invention was prepared in an extracellular solution of the following composition (in mM) NaCl 145, KCl 4, CaCl2 2, MgCl 2, HEPES 1, Glucose 10, pH 7.4 with NaOH Osmolality 300 mOsM/L. The intracellular solution was used of the following composition (in mM) CsF 115, CsCl 20, NaCl 5, EGTA 10, HEPES 10, Sucrose 20, pH 7.2 with CsOH Osmolality 310 mOsm/L.
Utilizing the voltage-clamp mode in the QPatch 48 HTX system a half inactivation state voltage protocol (V1/2) was used to determine pharmacological activity of the invention at Nav1.8 ion channels. A V1/2 protocol was utilized with the following voltage steps: a holding voltage of −100 mV was established followed by a 20 ms voltage step to 0 mV (P1), followed by an inactivating voltage step at −46 mV for 8 seconds, followed by a step to −100 mV for 20 ms, before a 20 ms step to 0 mV (P2) before returning to the holding voltage of −100 mV. This voltage protocol was repeated at a frequency of 0.07 Hz., current magnitude was quantified at the P2 step throughout the recording. Inhibition of the measured current amplitude with the invention was analyzed by fitting a 6-8 point dose-response curve allowing determination of the fifty percent inhibition concentration (IC50). Within the QPatch HTX software, P2 current was normalized according to measurements made at baseline after compound and after positive reference compound and fit to the following equation: […]
To assess current run-down over the course of the experiment vehicle-only wells were utilized and the normalized current with vehicle-only (n.IVEH) was determined. To correct the compound response for run-down, the currents were correct according the following formula: […]
Compounds of the invention are tested for activity against Nav1. 8 sodium channels in the above assay.

T1 sequence (Q9Y5Y9 whole entry): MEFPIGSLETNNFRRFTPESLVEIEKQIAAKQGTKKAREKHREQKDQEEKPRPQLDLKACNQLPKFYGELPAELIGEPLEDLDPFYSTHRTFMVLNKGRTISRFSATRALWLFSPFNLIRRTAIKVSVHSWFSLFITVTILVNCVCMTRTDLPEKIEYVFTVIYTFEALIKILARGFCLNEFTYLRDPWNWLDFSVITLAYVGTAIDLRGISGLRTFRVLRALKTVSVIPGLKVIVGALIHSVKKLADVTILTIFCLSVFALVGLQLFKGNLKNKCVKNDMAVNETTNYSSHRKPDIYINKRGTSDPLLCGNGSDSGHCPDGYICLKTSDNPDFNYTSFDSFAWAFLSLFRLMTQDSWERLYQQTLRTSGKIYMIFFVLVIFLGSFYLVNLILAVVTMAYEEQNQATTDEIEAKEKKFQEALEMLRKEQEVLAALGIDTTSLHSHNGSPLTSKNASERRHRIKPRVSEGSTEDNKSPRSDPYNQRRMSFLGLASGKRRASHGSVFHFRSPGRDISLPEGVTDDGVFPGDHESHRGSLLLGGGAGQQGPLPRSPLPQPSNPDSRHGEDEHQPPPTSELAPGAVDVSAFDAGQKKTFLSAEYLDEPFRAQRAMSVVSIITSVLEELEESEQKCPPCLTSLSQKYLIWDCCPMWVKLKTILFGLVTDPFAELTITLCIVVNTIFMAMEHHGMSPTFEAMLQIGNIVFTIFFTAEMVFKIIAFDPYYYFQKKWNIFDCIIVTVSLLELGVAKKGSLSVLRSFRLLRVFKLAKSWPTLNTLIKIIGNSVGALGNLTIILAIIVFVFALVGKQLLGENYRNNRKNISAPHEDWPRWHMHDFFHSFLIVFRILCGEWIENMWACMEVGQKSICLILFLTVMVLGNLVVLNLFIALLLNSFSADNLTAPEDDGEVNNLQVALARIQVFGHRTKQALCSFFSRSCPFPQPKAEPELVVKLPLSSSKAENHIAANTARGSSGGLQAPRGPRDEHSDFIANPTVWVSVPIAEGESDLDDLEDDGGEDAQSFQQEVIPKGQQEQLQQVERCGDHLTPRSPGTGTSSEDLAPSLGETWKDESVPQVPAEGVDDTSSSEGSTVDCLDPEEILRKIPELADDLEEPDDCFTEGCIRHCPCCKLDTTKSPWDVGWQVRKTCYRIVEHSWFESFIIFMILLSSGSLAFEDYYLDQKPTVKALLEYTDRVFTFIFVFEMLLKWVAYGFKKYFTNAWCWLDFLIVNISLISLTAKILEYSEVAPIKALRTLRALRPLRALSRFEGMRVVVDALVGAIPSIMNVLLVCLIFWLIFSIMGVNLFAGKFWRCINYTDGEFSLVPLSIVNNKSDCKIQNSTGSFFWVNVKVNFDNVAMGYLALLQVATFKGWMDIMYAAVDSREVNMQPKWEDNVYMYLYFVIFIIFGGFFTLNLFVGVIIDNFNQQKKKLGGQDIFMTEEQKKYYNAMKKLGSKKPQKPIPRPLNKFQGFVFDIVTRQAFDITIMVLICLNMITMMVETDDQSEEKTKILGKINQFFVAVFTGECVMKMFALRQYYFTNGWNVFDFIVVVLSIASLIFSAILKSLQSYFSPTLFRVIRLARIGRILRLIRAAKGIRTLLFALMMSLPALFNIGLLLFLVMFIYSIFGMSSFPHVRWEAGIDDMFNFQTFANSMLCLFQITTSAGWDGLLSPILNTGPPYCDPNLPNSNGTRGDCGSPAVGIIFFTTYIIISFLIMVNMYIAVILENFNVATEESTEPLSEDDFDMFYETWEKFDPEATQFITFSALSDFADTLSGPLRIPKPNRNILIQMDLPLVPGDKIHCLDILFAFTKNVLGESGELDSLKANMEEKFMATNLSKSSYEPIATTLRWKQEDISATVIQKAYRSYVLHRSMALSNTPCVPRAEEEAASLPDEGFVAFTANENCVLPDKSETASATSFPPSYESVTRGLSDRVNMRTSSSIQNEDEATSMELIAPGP
T1 sequence (Q07699 19-218 partner): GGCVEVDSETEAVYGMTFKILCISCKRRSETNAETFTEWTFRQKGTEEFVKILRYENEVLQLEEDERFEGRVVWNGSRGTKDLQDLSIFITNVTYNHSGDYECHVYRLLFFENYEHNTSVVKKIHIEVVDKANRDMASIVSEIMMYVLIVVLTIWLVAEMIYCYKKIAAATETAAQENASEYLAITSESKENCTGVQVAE

IC50 | Compound
126 to 631 nM | Cc1cnccc1N1CN(c2ccc(F)cc2C)c2ccc(C(F)(F)F)cc2C1=O [Example 16, 1-(4-fluoro-2-methylphenyl)-3-(3-methylpyridin-4-yl)-6-(trifluoromethyl)-2,3-dihydroquinazolin-4(1H)-one]
794 to 7940 nM | Cc1cc(F)ccc1N1CN(C2CCS(=O)(=O)CC2)C(=O)c2ccc(C(F)(F)F)cc21 [Example 17, 3-(1,1-dioxidotetrahydro-2H-thiopyran-4-yl)-1-(4-fluoro-2-methylphenyl)-7-(trifluoromethyl)-2,3-dihydroquinazolin-4(1H)-one]
794 to 7940 nM | Cc1cc(F)ccc1N1CN(c2cn[nH]c2)C(=O)c2cc(C(F)(F)F)ccc21 [Example 18, 1-(4-fluoro-2-methylphenyl)-3-(1H-pyrazol-4-yl)-6-(trifluoromethyl)-2,3-dihydroquinazolin-4(1H)-one]
794 to 7940 nM | COc1ccc(N2CN(c3ccc(F)cc3C)c3ccc(C(F)(F)F)cc3C2=O)c(C)n1 [Example 19, 1-(4-fluoro-2-methylphenyl)-3-(6-methoxy-2-methylpyridin-3-yl)-6-(trifluoromethyl)-2,3-dihydroquinazolin-4(1H)-one]
794 to 7940 nM | Cc1cc(F)ccc1N1CN(c2n[nH]c(=O)cc2C)C(=O)c2ccc(C(F)(F)F)cc21 [Example 20, 1-(4-fluoro-2-methylphenyl)-3-(4-methyl-6-oxo-1,6-dihydropyridazin-3-yl)-7-(trifluoromethyl)-2,3-dihydroquinazolin-4(1H)-one]
126 to 631 nM | Cc1cnccc1N1CN(c2ccc(OC(F)(F)F)cc2C)c2ccc(C(F)(F)F)cc2C1=O [Example 21, 1-(2-methyl-4-(trifluoromethoxy)phenyl)-3-(3-methylpyridin-4-yl)-6-(trifluoromethyl)-2,3-dihydroquinazolin-4(1H)-one]
794 to 7940 nM | Cc1cc(Cl)ncc1N1CN(c2ccc(F)cc2C)c2ccc(C(F)(F)F)cc2C1=O [Example 22, 3-(6-chloro-4-methylpyridin-3-yl)-1-(4-fluoro-2-methylphenyl)-6-(trifluoromethyl)-2,3-dihydroquinazolin-4(1H)-one]
126 to 631 nM | Cc1cnccc1N1CN(c2ccc(F)cc2C)c2cc(C(F)F)c(Cl)cc2C1=O [Example 23, 6-chloro-7-(difluoromethyl)-1-(4-fluoro-2-methylphenyl)-3-(3-methylpyridin-4-yl)-2,3-dihydroquinazolin-4(1H)-one]
126 to 631 nM | Cc1cc(F)ccc1N1CN(c2c[nH]nc2C)C(=O)c2cc(C(F)(F)F)ccc21 [Example 28, 1-(4-fluoro-2-methylphenyl)-3-(3-methyl-1H-pyrazol-4-yl)-6-(trifluoromethyl)-2,3-dihydroquinazolin-4(1H)-one]
≤ 100 nM | Cc1cc(F)ccc1N1CN([C@H]2CCC(=O)N[C@@H]2C)C(=O)c2cc(C(F)(F)F)ccc21 [Example 33, 1-(4-fluoro-2-methylphenyl)-3-((2R,3S)-2-methyl-6-oxopiperidin-3-yl)-6-(trifluoromethyl)-2,3-dihydroquinazolin-4(1H)-one]
126 to 631 nM | Cc1cc(F)ccc1N1CN(C2CCC(=O)NC2=O)C(=O)c2cc(C(F)(F)F)ccc21 (stereo not shown) [Example 34, 3-(1-(4-fluoro-2-methylphenyl)-4-oxo-6-(trifluoromethyl)-1,4-dihydroquinazolin-3(2H)-yl)piperidine-2,6-dione]
≤ 100 nM | Cc1cc(F)ccc1N1CN(c2ccc(=O)[nH]c2C)C(=O)c2ccc(C(F)(F)F)cc21 [Example 35, 1-(4-Fluoro-2-methylphenyl)-3-(2-methyl-6-oxo-1,6-dihydropyridin-3-yl)-7-(trifluoromethyl)-2,3-dihydroquinazolin-4(1H)-one]
126 to 631 nM | Cc1cc(F)ccc1N1CN(c2ccc(=O)[nH]c2)C(=O)c2ccc(C(F)(F)F)cc21 [Example 36, 1-(4-fluoro-2-methylphenyl)-3-(6-oxo-1,6-dihydropyridin-3-yl)-7-(trifluoromethyl)-2,3-dihydroquinazolin-4(1H)-one]
794 to 7940 nM | O=C1c2ccc(C(F)(F)F)cc2N(C2CCCCC2)CN1c1ccc(=O)[nH]c1 [Example 37, 1-cyclohexyl-3-(6-oxo-1,6-dihydropyridin-3-yl)-7-(trifluoromethyl)-2,3-dihydroquinazolin-4(1H)-one]
794 to 7940 nM | Cc1cc(F)cc(C)c1N1CN(c2ccc(=O)[nH]c2)C(=O)c2ccc(C(F)(F)F)cc21 [Example 38, 1-(4-fluoro-2,6-dimethylphenyl)-3-(6-oxo-1,6-dihydropyridin-3-yl)-7-(trifluoromethyl)-2,3-dihydroquinazolin-4(1H)-one]
794 to 7940 nM | Cc1cc(F)ccc1N1c2cc(C(F)(F)F)ccc2C(=O)N(c2ccc(=O)[nH]c2)C1C (stereo not shown) [Example 39, 1-(4-fluoro-2-methylphenyl)-2-methyl-3-(6-oxo-1,6-dihydropyridin-3-yl)-7-(trifluoromethyl)-2,3-dihydroquinazolin-4(1H)-one]
126 to 631 nM | O=C1c2ccc(C(F)(F)F)cc2N(c2ccc(F)cc2Cl)CN1c1ccc(=O)[nH]c1 [Example 40, 1-(2-chloro-4-fluorophenyl)-3-(6-oxo-1,6-dihydropyridin-3-yl)-7-(trifluoromethyl)-2,3-dihydroquinazolin-4(1H)-one]
794 to 7940 nM | O=C1c2ccc(C(F)(F)F)cc2N(c2ccc(F)cc2OCCO)CN1c1ccc(=O)[nH]c1 [Example 41, 1-(4-fluoro-2-(2-hydroxyeth-oxy)phenyl)-3-(6-oxo-1,6-dihydropyridin-3-yl)-7-(trifluoromethyl)-2,3-dihydroquinazolin-4(1H)-one]
794 to 7940 nM | O=C1c2ccc(C(F)(F)F)cc2N(c2ccc(F)cc2F)CN1c1ccc(=O)[nH]c1 [Example 42, 1-(2,4-difluorophenyl)-3-(6-oxo-1,6-dihydropyridin-3-yl)-7-(trifluoromethyl)-2,3-dihydroquinazolin-4(1H)-one]
126 to 631 nM | CCc1cc(F)ccc1N1CN(c2ccc(=O)[nH]c2)C(=O)c2ccc(C(F)(F)F)cc21 [Example 43, 1-(2-ethyl-4-fluorophenyl)-3-(6-oxo-1,6-dihydropyridin-3-yl)-7-(trifluoromethyl)-2,3-dihydroquinazolin-4(1H)-one]
794 to 7940 nM | Cc1cc(F)ccc1N1CN(c2ccc(=O)[nH]c2)C(=O)c2ccc(C(F)(F)F)c(Cl)c21 [Example 44, 8-chloro-1-(4-fluoro-2-methylphenyl)-3-(6-oxo-1,6-dihydropyridin-3-yl)-7-(trifluoromethyl)-2,3-dihydroquinazolin-4(1H)-one]
794 to 7940 nM | Cc1cc(F)ccc1N1CN(c2ccc(=O)[nH]c2)C(=O)c2ccc(C(F)(F)F)c(C)c21 [Example 45, 1-(4-fluoro-2-methylphenyl)-8-methyl-3-(6-oxo-1,6-dihydropyridin-3-yl)-7-(trifluoromethyl)-2,3-dihydroquinazolin-4(1H)-one]
794 to 7940 nM | Cc1ncccc1N1CN(c2ccc(=O)[nH]c2C)C(=O)c2ccc(C(F)(F)F)cc21 [Example 46, 3-(2-methyl-6-oxo-1,6-dihydropyridin-3-yl)-1-(2-methylpyridin-3-yl)-7-(trifluoromethyl)-2,3-dihydroquinazolin-4(1H)-one]
≤ 100 nM | Cc1[nH]c(=O)ccc1N1CN(c2ccc(F)cc2C(C)C)c2cc(C(F)(F)F)ccc2C1=O [Example 47, 1-(4-fluoro-2-isopropylphenyl)-3-(2-methyl-6-oxo-1,6-dihydropyridin-3-yl)-7-(trifluoromethyl)-2,3-dihydroquinazolin-4(1H)-one]
≤ 100 nM | Cc1cc(F)ccc1N1CN(c2ccc(=O)[nH]c2C)C(=O)c2cc(Cl)ccc21 [Example 48, 6-chloro-1-(4-fluoro-2-methylphenyl)-3-(2-methyl-6-oxo-1,6-dihydropyridin-3-yl)-2,3-dihydroquinazolin-4(1H)-one]
794 to 7940 nM | Cc1[nH]c(=O)ccc1N1CN(c2ccc(F)cc2)c2ccccc2C1=O [Example 49, 1-(4-fluorophenyl)-3-(2-methyl-6-oxo-1,6-dihydropyridin-3-yl)-2,3-dihydroquinazolin-4(1H)-one]
126 to 631 nM | Cc1ccccc1N1CN(c2ccc(=O)[nH]c2C)C(=O)c2ccccc21 [Example 50, 3-(2-methyl-6-oxo-1,6-dihydropyridin-3-yl)-1-(o-tolyl)-2,3-dihydroquinazolin-4(1H)-one]
≤ 100 nM | Cc1ccc2c(c1)C(=O)N(c1ccc(=O)[nH]c1C)CN2c1ccc(F)cc1C [Example 51, 1-(4-f1uoro-2-methylphenyl)-6-methyl-3-(2-methyl-6-oxo-1,6-dihydropyridin-3-yl)-2,3-dihydroquinazolin-4(1H)-one]
